Each structure is given as a SMILES string. Where only a bound is given, the exact number is not on record here.

Common to all, as to format: biochemical
One test has as its target T1, Lck (Homo sapiens, UniProt P06239).
T1 construct: Kinases are expressed as either kinase domains or full length constructs; made in house
Kind of test: Kinase inhibition assay (33P transfer), Lck. The settings on record: Table 3, class symbols; read-out: Lck-1. Put shortly:
(§1)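 Kinase domain or full-length constructs, GST- or polyHis-tagged, expressed in E. coli or baculovirus-High Five cells, sometimes with regulatory polypeptides. Activity measured as 33PO4 transfer from ATP to plate-bound poly(Glu,Tyr) 4:1 or poly(Arg,Ser) 3:1; after incubation, plates washed with 0.5% phosphoric acid and counted by liquid scintillation.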

In a further test the target is T2, AKT (Homo sapiens, UniProt Q9Y243).
T2 construct: Kinases are expressed as either kinase domains or full length constructs; made in house
Kind of test: Kinase inhibition assay (33P transfer), AKT. The settings on record: Table 2, class symbols A-E; read-out: AKT3-1. Put shortly: as §1

The next test has as its target T3, IGFR-1 (Homo sapiens, UniProt P08069).
T3 construct: Kinases are expressed as either kinase domains or full length constructs; made in house
Kind of test: Kinase inhibition assay (33P transfer), IGFR-1. Conditions: Table 2, class symbols A-E.

The next test addresses T4, Itk (Homo sapiens, UniProt Q08881).
T4 construct: Kinases are expressed as either kinase domains or full length constructs; made in house
T4 sequence (Q08881 1-620): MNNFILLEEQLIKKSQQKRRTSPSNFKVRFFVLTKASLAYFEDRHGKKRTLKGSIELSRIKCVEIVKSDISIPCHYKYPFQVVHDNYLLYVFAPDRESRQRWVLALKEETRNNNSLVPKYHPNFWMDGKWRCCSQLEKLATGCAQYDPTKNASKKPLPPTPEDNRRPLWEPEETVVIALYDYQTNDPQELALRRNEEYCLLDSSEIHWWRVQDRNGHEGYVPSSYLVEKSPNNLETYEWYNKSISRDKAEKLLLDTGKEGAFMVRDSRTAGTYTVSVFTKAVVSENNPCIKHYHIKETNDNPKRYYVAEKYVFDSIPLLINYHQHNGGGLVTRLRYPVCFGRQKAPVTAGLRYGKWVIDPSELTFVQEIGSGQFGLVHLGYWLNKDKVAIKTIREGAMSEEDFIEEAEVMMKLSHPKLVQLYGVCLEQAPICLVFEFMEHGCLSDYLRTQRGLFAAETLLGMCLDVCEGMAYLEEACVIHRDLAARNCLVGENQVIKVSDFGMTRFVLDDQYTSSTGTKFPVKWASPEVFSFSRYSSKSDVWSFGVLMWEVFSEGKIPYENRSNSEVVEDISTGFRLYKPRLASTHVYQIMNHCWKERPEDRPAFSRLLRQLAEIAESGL
The test can be described thus: Kinase inhibition assay (33P transfer), Itk. The settings on record: Table 3, class symbols; read-out: Itk-1. The essentials:
(§2)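 IC50: inhibitor concentration lowering 33P incorporation into immobilised substrate by 50%. Label transferred from ATP to poly(Glu,Tyr) 4:1 or poly(Arg,Ser) 3:1 is measured after a 0.5% phosphoric acid wash by liquid scintillation.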

In another test the target is T5, Zap-70 (Homo sapiens, UniProt P43403).
T5 construct: Kinases are expressed as either kinase domains or full length constructs; made in house
T5 sequence (P43403 1-619): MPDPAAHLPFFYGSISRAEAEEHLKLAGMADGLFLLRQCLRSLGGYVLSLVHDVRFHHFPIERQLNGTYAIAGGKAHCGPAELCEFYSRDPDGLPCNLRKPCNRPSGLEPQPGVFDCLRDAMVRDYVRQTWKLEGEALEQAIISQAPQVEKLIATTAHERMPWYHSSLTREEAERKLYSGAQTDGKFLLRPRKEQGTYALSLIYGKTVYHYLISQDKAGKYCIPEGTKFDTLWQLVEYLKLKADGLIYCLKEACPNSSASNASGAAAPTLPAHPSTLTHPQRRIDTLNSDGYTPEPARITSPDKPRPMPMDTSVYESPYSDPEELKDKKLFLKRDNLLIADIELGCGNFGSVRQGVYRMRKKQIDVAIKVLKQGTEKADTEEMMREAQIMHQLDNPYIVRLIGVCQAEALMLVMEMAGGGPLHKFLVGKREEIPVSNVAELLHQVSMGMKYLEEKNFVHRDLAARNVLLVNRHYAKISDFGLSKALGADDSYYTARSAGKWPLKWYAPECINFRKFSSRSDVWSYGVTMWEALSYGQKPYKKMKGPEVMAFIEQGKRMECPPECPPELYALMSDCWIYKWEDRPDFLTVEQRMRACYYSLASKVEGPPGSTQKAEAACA
Kind of test: Kinase inhibition assay (33P transfer), Zap-70. The settings on record: Table 3, class symbols; read-out: Zap-1. Put shortly:
as §1

A further test has as its target T6, Kdr (Homo sapiens, UniProt P35968).
T6 construct: Kinases are expressed as either kinase domains or full length constructs; made in house
Kind of test: Kinase inhibition assay (33P transfer), Kdr. Conditions: Table 3, class symbols; read-out: KDR-1. Put shortly:
as §1

The target in another test is T7, EGFR (Homo sapiens, UniProt P00533).
T7 construct: Kinases are expressed as either kinase domains or full length constructs; made in house
T7 sequence (P00533 25-1210, species assumed): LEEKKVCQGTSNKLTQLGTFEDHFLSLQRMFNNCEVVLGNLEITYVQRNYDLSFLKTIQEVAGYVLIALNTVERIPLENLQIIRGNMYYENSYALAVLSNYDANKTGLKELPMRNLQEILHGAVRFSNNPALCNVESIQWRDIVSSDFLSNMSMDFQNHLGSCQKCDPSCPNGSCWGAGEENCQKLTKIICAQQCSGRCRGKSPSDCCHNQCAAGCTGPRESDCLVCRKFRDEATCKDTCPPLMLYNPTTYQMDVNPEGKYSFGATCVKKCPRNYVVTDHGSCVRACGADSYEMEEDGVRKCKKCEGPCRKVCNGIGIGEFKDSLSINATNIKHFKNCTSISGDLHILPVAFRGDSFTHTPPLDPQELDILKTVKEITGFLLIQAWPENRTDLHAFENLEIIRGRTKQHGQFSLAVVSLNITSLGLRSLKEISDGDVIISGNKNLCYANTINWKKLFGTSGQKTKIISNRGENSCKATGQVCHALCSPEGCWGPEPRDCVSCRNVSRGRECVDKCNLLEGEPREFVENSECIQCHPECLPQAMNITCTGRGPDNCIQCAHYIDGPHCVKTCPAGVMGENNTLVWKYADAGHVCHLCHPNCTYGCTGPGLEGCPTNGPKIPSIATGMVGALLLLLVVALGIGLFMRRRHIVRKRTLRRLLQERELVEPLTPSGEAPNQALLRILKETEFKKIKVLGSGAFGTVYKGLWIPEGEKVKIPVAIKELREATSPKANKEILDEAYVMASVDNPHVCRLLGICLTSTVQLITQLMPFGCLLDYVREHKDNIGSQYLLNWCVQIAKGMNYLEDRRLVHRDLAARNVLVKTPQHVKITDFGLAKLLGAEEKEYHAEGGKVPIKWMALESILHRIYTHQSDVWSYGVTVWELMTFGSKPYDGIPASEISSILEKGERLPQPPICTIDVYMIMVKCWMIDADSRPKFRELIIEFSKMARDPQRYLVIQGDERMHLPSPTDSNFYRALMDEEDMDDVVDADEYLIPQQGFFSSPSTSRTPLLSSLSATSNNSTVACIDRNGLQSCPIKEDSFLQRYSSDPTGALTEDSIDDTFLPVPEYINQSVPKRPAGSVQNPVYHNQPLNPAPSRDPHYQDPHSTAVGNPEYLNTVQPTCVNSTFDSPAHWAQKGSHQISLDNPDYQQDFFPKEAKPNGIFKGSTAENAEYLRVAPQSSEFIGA
The test can be described thus: Kinase inhibition assay (33P transfer), EGFR. Conditions: Table 2, class symbols A-E; read-out: EGFR-1. Put shortly:
as §2

The next test deals with T8, c-Met (Homo sapiens, UniProt P08581).
T8 construct: Kinases are expressed as either kinase domains or full length constructs; made in house
Kind of test: Kinase inhibition assay (33P transfer), c-Met. The settings on record: Table 2, class symbols A-E; read-out: Met-1. The essentials: as §2

The target of another test is T9, ErbB2 (Homo sapiens, UniProt P04626).
T9 construct: Kinases are expressed as either kinase domains or full length constructs; made in house
T9 sequence (P04626 23-1255, species assumed): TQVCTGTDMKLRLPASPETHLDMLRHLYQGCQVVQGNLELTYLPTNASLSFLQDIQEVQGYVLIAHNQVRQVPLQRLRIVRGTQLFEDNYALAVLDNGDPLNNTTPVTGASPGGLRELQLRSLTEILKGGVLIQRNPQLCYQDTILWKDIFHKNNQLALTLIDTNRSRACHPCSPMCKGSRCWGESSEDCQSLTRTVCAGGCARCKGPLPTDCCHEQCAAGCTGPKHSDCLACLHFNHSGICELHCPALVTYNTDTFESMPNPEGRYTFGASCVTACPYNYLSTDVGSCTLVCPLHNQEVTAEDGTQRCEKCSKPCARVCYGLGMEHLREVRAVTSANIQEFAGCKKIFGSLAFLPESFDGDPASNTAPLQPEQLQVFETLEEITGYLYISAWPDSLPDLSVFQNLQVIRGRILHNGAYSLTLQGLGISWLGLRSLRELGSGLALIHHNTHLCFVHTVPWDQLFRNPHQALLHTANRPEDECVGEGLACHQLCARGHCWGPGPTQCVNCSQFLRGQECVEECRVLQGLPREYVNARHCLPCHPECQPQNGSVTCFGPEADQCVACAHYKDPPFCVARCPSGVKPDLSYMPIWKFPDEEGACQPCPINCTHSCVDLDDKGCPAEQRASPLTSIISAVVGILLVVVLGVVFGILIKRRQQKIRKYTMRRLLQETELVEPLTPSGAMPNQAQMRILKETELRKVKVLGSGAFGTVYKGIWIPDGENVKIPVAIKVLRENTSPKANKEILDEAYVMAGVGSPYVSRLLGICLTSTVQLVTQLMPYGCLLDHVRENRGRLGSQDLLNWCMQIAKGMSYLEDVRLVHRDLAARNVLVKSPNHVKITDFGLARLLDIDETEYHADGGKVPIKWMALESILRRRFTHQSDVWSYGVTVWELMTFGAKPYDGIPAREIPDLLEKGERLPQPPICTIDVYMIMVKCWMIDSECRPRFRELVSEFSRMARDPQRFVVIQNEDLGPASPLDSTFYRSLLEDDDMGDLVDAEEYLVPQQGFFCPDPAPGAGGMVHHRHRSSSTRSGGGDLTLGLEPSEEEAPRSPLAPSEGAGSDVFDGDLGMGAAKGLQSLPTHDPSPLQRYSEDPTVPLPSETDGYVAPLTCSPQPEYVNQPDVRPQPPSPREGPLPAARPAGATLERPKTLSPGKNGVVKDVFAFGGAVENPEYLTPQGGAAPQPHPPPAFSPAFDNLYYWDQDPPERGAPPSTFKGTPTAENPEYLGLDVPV
The test can be described thus: Kinase inhibition assay (33P transfer), ErbB2. The settings on record: read-out: ErbB2-2. The essentials:
as §2

The next test has as its target T10, PDGFRB (Homo sapiens, UniProt P09619).
T10 construct: Kinases are expressed as either kinase domains or full length constructs; made in house
The test can be described thus: Kinase inhibition assay (33P transfer), PDGFRB. Conditions: read-out: PDGFRB-1.

T10 sequence (P09619 33-1106, species assumed): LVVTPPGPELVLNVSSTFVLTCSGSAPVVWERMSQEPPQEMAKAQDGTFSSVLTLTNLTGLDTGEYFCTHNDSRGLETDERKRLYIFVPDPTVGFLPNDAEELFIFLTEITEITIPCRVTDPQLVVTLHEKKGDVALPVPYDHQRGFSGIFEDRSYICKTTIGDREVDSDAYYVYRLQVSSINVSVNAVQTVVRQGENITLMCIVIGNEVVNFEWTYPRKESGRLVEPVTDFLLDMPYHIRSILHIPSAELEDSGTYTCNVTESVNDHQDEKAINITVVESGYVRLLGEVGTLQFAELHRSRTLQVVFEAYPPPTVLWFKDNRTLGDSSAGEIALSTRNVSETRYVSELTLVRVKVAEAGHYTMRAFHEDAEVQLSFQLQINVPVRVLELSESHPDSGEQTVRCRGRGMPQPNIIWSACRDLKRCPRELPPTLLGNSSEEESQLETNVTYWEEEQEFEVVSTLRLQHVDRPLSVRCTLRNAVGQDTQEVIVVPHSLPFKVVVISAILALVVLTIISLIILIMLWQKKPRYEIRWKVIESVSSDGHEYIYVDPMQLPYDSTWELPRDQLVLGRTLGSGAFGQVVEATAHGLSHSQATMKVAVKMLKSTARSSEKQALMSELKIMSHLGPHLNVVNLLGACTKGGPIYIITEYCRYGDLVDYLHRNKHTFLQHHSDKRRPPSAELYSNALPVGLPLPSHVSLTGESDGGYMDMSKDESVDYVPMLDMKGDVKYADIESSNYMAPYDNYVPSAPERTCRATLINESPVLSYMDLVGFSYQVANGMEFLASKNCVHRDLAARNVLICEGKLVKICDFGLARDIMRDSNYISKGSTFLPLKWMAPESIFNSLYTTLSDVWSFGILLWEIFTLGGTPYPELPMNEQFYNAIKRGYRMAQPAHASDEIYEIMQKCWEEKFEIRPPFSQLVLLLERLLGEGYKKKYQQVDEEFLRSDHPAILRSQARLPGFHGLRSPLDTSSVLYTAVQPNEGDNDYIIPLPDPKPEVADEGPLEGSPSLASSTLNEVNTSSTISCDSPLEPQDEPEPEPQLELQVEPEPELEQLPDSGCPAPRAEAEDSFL
T3 sequence (P08069 31-1367): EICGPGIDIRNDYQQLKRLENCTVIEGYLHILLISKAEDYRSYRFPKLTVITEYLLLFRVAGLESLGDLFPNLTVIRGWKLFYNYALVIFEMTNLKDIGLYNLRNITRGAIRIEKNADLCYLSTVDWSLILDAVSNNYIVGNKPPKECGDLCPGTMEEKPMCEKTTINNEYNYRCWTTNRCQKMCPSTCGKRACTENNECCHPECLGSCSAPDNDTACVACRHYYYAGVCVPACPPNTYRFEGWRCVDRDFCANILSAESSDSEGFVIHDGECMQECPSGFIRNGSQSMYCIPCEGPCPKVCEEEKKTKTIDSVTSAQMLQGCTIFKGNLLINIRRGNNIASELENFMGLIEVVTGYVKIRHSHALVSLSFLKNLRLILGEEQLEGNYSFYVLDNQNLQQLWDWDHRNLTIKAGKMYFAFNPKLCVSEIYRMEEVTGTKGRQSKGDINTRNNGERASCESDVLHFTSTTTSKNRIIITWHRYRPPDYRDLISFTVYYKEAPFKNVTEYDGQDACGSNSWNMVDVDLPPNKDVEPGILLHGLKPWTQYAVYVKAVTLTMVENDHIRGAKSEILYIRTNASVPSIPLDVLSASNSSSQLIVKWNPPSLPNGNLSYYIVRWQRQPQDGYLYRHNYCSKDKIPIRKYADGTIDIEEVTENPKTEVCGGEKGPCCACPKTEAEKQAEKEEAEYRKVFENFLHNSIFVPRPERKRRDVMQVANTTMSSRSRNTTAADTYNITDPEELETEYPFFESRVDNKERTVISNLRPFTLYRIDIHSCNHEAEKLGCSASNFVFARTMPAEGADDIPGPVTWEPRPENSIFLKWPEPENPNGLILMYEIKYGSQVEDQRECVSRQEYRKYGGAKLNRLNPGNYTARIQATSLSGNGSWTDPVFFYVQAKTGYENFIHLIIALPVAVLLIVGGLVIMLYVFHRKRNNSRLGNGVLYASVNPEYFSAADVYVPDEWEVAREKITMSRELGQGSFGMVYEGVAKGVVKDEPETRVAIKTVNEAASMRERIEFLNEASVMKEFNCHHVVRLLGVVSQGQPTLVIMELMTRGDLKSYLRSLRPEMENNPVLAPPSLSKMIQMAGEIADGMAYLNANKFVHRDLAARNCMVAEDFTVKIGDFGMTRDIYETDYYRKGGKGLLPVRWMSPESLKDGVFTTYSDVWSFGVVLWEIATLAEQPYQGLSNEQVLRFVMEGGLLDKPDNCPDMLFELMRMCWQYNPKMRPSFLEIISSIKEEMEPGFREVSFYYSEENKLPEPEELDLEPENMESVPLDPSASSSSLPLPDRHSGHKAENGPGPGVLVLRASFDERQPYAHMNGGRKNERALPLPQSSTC

`O=C(O)Cc1cccc(Nc2ncnc(-c3cccnc3Nc3ccccc3)n2)c1` [Compound 1094]: the IC50 was greater than 11.3 µM at Lck; greater than 11.3 µM at AKT; greater than 11.3 µM against IGFR-1; greater than 11.3 µM at Itk; 6.02 to 8.78 µM at Zap-70; less than 1 µM on Kdr. The IC50 was 1 to 6.02 µM on EGFR, 1 to 6.02 µM on c-Met, 6.02 to 8.78 µM at ErbB2 and less than 1000 nM on PDGFRB.
For the molecule `COc1cc(Nc2ncnc(-c3cccnc3Nc3cccc(C(C)=O)c3)n2)cc(OC)c1OC` [Compound 831], the IC50 at Lck, at AKT, against IGFR-1, at Itk, at Zap-70 and at Kdr was greater than 9.52 µM each time. The IC50 was greater than 9.52 µM at EGFR, 5.08 to 7.41 µM at c-Met, greater than 9.52 µM on ErbB2 and less than 847 nM at PDGFRB.
Consider `COc1cc(Nc2ncnc(Nc3cc(Cl)c(NC(=O)c4ccccc4)cc3C)n2)cc(OC)c1OC` [Compound 633], for which the IC50 at Lck is 0.768 to 4.61 µM; at AKT, greater than 8.64 µM; against IGFR-1, greater than 8.64 µM; at Itk it was greater than 8.64 µM; at Zap-70, greater than 8.64 µM; on Kdr, 6.72 to 8.64 µM. Moreover, the IC50 on EGFR was 0.768 to 4.61 µM; on c-Met it was greater than 8.64 µM; on ErbB2, 0.768 to 4.61 µM; at PDGFRB, 4610 to 6720 nM.
As to `C#Cc1cccc(Nc2ncnc(Nc3cc(-c4ccccc4)n[nH]3)n2)c1` [Compound 1008], the IC50 is 1.13 to 6.79 µM on Lck; greater than 12.7 µM on AKT; less than 1.13 µM at IGFR-1; 1.13 to 6.79 µM at Itk; greater than 12.7 µM on Zap-70; 1.13 to 6.79 µM on Kdr. Besides, the IC50 at EGFR was 1.13 to 6.79 µM; on c-Met, 1.13 to 6.79 µM; on ErbB2 it was greater than 12.7 µM; on PDGFRB it was greater than 12700 nM.
Consider `COc1ccc(Nc2ncnc(N(C)c3ccc(Cl)cc3)n2)cc1OC` [Compound 795], for which the IC50 on Lck was 1.08 to 6.45 µM; at AKT, greater than 12.1 µM; against IGFR-1, 9.41 to 12.1 µM; at Itk, greater than 12.1 µM; on Zap-70 it was greater than 12.1 µM; at Kdr it was 1.08 to 6.45 µM. Further, the IC50 at EGFR was less than 1.08 µM; at c-Met, less than 1.08 µM; on ErbB2, less than 1.08 µM; at PDGFRB it was less than 1080 nM.
For `O=C(O)CNC(=O)c1ccc(Nc2ncnc(Nc3cc(-c4ccco4)[nH]n3)n2)cc1` [Compound 884], the IC50 is greater than 10.7 µM on Lck; 0.951 to 5.71 µM at AKT; 0.951 to 5.71 µM on IGFR-1; 0.951 to 5.71 µM at Itk; 5.71 to 8.33 µM on Zap-70; less than 0.951 µM on Kdr. Moreover, the IC50 on EGFR was 0.951 to 5.71 µM; at c-Met, 0.951 to 5.71 µM; on ErbB2, 0.951 to 5.71 µM; at PDGFRB it was less than 951 nM.
Turning to `c1cc(Cn2ccnn2)cc(Nc2ncnc(-n3c(Nc4ccc5[nH]ccc5c4)nc4ccccc43)n2)c1` [Compound 963], the IC50 on Lck was 0.801 to 4.8 µM; at AKT, 7.01 to 9.01 µM; against IGFR-1, 4.8 to 7.01 µM; at Itk it was 4.8 to 7.01 µM; at Zap-70 it was 7.01 to 9.01 µM; at Kdr, less than 0.801 µM. Further, the IC50 was 4.8 to 7.01 µM at EGFR, 0.801 to 4.8 µM on c-Met, 0.801 to 4.8 µM on ErbB2 and less than 801 nM at PDGFRB.
Regarding `COCCNc1ncnc(Nc2cc(-c3ccc(C(=O)OC)cc3)n[nH]2)n1` [Compound 816], the IC50 at Lck was greater than 12.2 µM; on AKT, greater than 12.2 µM; against IGFR-1 it was 9.48 to 12.2 µM; on Itk, 6.5 to 9.48 µM; at Zap-70, greater than 12.2 µM; at Kdr, greater than 12.2 µM. Besides, the IC50 at EGFR was greater than 12.2 µM; at c-Met it was greater than 12.2 µM; on ErbB2, 6.5 to 9.48 µM; on PDGFRB, less than 1080 nM.

The values above are taken from patent US7074789B2, “Kinase inhibitors” (Amgen Inc., priority 1999, dated 2006).
